{"source": "patent US8822407B2", "about": "“Preparation of conjugates comprising adenine derivatives and allergenic proteins and their use for specific immunotherapy of allengenic diseases” (Universita' Degli Studi di Firenze, priority 2010, dated 2014)", "biological_target": "T1, TLR8 (Homo sapiens, UniProt Q9NR97)", "T1 construct": "expressed in transfected cells; host or cells: HEK293 (transient Nucleofection, Amaxa)", "T1 sequence (Q9NR97 27-1041)": "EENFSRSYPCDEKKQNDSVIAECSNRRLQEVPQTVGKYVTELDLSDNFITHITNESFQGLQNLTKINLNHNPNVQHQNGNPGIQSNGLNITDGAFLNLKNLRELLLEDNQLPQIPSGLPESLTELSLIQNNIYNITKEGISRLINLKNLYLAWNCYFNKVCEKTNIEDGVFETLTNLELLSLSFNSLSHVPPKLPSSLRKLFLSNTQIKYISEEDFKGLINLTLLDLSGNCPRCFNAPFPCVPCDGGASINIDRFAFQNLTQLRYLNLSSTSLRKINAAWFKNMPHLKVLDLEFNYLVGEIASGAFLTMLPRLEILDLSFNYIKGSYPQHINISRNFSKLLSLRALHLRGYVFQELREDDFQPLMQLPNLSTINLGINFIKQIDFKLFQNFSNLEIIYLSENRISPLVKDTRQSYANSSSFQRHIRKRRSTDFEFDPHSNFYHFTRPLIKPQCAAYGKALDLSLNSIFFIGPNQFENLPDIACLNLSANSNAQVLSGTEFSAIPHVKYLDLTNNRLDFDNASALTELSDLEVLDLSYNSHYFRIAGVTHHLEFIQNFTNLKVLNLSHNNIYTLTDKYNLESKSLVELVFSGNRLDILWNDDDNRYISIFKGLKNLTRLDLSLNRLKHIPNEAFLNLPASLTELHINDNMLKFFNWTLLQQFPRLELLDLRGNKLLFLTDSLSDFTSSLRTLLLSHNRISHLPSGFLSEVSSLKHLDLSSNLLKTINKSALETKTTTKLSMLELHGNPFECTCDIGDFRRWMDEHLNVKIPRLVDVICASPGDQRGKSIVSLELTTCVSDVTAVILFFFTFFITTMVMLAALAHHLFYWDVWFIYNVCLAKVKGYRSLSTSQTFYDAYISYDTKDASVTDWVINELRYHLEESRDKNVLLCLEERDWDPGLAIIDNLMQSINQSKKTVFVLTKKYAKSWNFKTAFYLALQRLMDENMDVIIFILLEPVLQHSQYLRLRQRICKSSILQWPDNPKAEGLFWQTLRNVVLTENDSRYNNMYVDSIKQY", "test": "TLR8-transfected HEK293 cells, NF-kB luciferase reporter", "format": "cell-based", "conditions": "R-848 2 μg/ml; data not shown", "experimental": "HEK293 cells are detached by trypsin from the plastic surface of the culture bottle, extensively washed with calcium and magnesium-free PBS, counted and adjusted at the concentration 1×10^6 cells/tube in polypropylene V-bottomed tubes. After the final wash, the cells are pelleted and 100 μl transfection buffer (Amaxa) is added together with […], TLR7, TLR8 or TLR9-encoding and ELAM-1 promoter NF-kB luciferase reporter plasmids. The mixture thus obtained is transferred in special cuvettes and transient transfection is obtained in a special apparatus which is able to directly introduce genetic material into the nucleus (Nucleofection®, Amaxa GmbH). The cells are then recovered and cultured at 1×10^5/ml in 48-flat bottomed plates in E-MEM medium plus 5% foetal calf serum for 18 hrs. […] Finally the luciferase activity is measured in the cellular lysates by a commercial kit (Promega).", "data": [{"smiles": "CCOCc1nc2c(N)nc3ccccc3c2n1CC(C)(C)O", "note": "[Conj R-848, reference compound]", "values": [{"measurement": "NF-κB expression in TLR8-transfected HEK293 cells", "value": "able to induce NF-κB expression"}]}]}
